Tests used:
Assay type in all cases: cell-based
[1] = system: LPS-induced TNF-α production; test: Inhibition of LPS-induced TNF-α production in human whole blood culture; conditions: LPS 10 ng/ml, 6 h; for IC50: IC50 by program calcdemo, read-out: IC50 to inhibit LPS-induced TNF-α production
Protocol: (§1) Human blood sample (−20 ml) was taken from a peripheral venous (10 ml) of a healthy volunteer (20-50 years old, nonsmoker) using sterile endotoxin-free ethylenediaminetetraacetic (EDTA) tube and was immediately processed. The blood samples were divided into three different experimental conditions (groups): control, stimulating with LPS alone and LPS plus testing compound. Each group contained five blood samples from different individuals. In control group, 100 μl of whole blood sample were diluted with 900 μL of RPMI 1640 in 24 wells plate. In LPS only group or LPS plus testing compound group, 100 ul of whole blood were diluted with 1 μl testing compound or DMSO and 889 ul of RPMI 1640 (RPMI 1640 was consisted of 25 mM Hepes supplemented with 100 U/mL penicillin, 100 μg/mL streptomycin, 4 mM 1-glutamine, and 10% fetal calf serum) All samples from the three groups were incubated in 37° C. and 5% CO2 for 15 minutes, then 10 μl LPS (1 μg/ml) was added into these samples except samples of control group, and was kept in 37° C. and 5% CO2 for 6 h. The samples were placed on ice for 3 minutes and centrifuged for 10 min at 4° C. and 1500 g. The supernatants of the whole blood culture were taken and kept at −80° C. for analysis of TNF-α, IL-1, IL-6 and IL-8.
The samples from above described protocol were used to determine the release of TNF-α from whole blood culture induced by LPS stimulation and the inhibition by each of 22 tested compounds on the LPS-induced TNF-α production. The TNF-α production was assessed using human TNF-α Enzyme Immunometric Assay Kit (Lot. 235123) from R&D Systems (MN, USA), the detail methods are described as the instruction of the Kit. The concentration of LPS-induced TNF-α production in whole blood culture was 884.2±329.8 pg/ml. These 22 compounds were divided into three groups according to their inhibition potencies on the LPS-induced TNF-α production:
(§2) Since compounds #54 and #44 we obtained were mixed chemical isomers, these two compounds have been excluded from the IC50 experiments. […] concentrations of the compounds (#20, #33, #37, #39, and #48) were tested: 10^−9, 10^−8, 10^−7, 10^−6, 10^−5 and 10^−4 Molar/L. The parent compound, sinomenine, was used as a control. The IC50 was determined by program calcdemo.
The blood samples were incubated in the presence of LPS (concentration. 10 ng/ml) for 6 h. Sinomenine (SIN) was used as control. Because all tested compounds including SIN had no effect at concentration of 10^−9 on LPS-induced TNF-α production, the levels of LPS-induced TNF-α production at 10^−9 of tested compounds in the figures were equivalent to the levels of TNF-α in blood samples with LPS alone. Data in panel a of the figures (a1-a6) present the absolute values of TNF-α; data in panel b (b1-b6) present the percentage inhibition of the tested compounds on LPS-induced TNF-α production. All data were Mean±SD (n=6).

[2] = system: LPS-induced IL-1 production; test: Inhibition of LPS-induced IL-1 production in human whole blood culture; conditions: LPS 10 ng/ml, 6 h; for IC50: human whole blood culture, IC50 by program calcdemo, read-out: IC50 to inhibit LPS-induced IL-1 production
Protocol: as §1, §2
The inhibition of tested compounds on LPS-induced IL-1 production was assessed using human IL-1βEnzyme Immunometric Assay Kit (Lot number 145020) from Cayman Chemical Company (MI, USA). The methods are briefly described according to the instructions supplied with the Kit. All reagents and solutions were supplied with the Kit:
1) Reagents and solutions were properly prepared for the experiments to determine bioactivity according to the instruction.
2) Standard solution provided with the Kit, blood sample with testing compound and blood sample with LPS alone which were prepared as above described, 50 ul for each of these solution or blood samples, was added to each well. Then, 10 μL of DTT, 5 μL of mouse serum and 100 μL of Fab′ were also added into each well together. The well was covered with the adhesive strip. Then those wells were incubated overnight at 4° C. A plate layout was provided to record standards and samples assayed. 3) Each well was washed by filling wash buffer (600 μL) using an autowasher. The liquid was completely removed at each step to ensure good performance. This process was repeated four times for a total of five washes. 4) 200 μL of Ellman's reagent was added to each well and the plate was covered with a piece of dark paper, incubated for 4 hours at room temperature with gentle shaking. 5) The optical density of each well was determined using a microplate reader set to 412 nm.
The blood samples were incubated in the presence of LPS (concentration: 10 ng/ml) for 6 h. The inhibition of Sinomenine (SIN) on LPS-induced IL-1 production was also examined. Because all tested compounds including SIN had no effect at concentration of 10^−9 on LPS-induced IL-1 production, the levels of LPS-induced IL-1 production at 10^−9 of tested compounds in the figures were equivalent to the levels of IL-1 in blood samples with LPS alone. […]

[3] = system: LPS-induced IL-6 production; test: Inhibition of LPS-induced IL-6 production in human whole blood culture; conditions: LPS 10 ng/ml, 6 h; for IC50: human whole blood culture, IC50 by program calcdemo, read-out: IC50 to inhibit LPS-induced IL-6 production
Protocol: as §1, §2
(§3) The inhibition of tested compounds on LPS-induced IL-6 production was assessed using human IL-6 Elisa Kit (Lot number 054204D) from Biosource (Carlsbad, Calif., USA). The methods are briefly described according to the instruction in the Kit as below, all reagents and solutions were supplied with the Kit:
(§4) 1) Reagents and solutions were properly prepared for the experiments to determine bioactivity according to the instruction of the Kit.
2) 50 μL of standard solution supplied with the Kit, blood sample with testing compound and blood sample with LPS alone was added per well. Then, 50 μL of Biotin Conjugate was added to each well. The well was covered with the adhesive strip. Then those wells were incubated for 2 hours at room temperature. 3) Each well was aspirated and washed by filling wash buffer (600 μL) using an autowasher. The liquid was completely removed at each step to ensure good performance. This process was repeated three times for a total of four washes. 4) 100 μL of Streptavidin-HRP working solution was added to each well and the well was covered with a new adhesive strip, incubated for 30 min at room temperature. 5) The same aspiration and wash procedures were repeated as described in step 3. 6) 100 μL of Stabilized Chromogen was added to each well and incubated for 30 minutes at room temperature. These wells were protected from light. 7) 100 μL of Stop Solution was added to each well. 8) The optical density of each well was determined within 30 minutes using a microplate reader set to 450 nm.
The blood samples were incubated in the presence of LPS (concentration: 10 ng/ml) for 6 h. The effects of sinomenine (SIN) on LPS-induced IL-6 production were also examined. […]

[4] = system: LPS-induced IL-8 production; test: Inhibition of LPS-induced IL-8 production in human whole blood culture; conditions: LPS 10 ng/ml, 6 h; for IC50: human whole blood culture, IC50 by program calcdemo, read-out: IC50 to inhibit LPS-induced IL-8 production
Protocol: as §1, §2
as §3, with “IL-8” for “IL-6”, “061302B)” for “054204D)”
as §4
2) Standard solution supplied with the Kit, blood sample with testing compound and blood sample with LPS alone was (50 μL of each item) added into per well. Then, 50 μL of Biotin Conjugate was also added to each well. The well was covered with the adhesive strip. Then those wells were incubated for 1.5 hours at room temperature. 3) Each well was aspirated and washed by filling wash buffer (600 μL) using an autowasher. The liquid was completely removed at each step to ensure good performance. This process was repeated three times for a total of four washes. 4) 100 μL of Streptavidin-HRP working solution was added to each well and the well was covered with a new adhesive strip, incubated for 30 min at room temperature. 5) The same aspiration and wash procedures were repeated as described in step 3. 6) 100 μL of Stabilized Chromogen was added to each well and incubated for 30 minutes at room temperature. These wells were protected from light. 7) 100 μL of Stop Solution was added to each well. 8) The optical density of each well was determined within 30 minutes using a microplate reader set to 450 nm.
The blood samples were incubated in the presence of LPS (concentration: 10 ng/ml) for 6 hours. The effects of sinomenine (SIN) on LPS-induced IL-8 production were also examined. […]

SMILES | effect on LPS-induced TNF-α production at concentration of 10^−9 ([1]; 10^−9 mol/L) | effect on LPS-induced IL-1 production at concentration of 10^−9 ([2]; 10^−9 mol/L) | effect on LPS-induced IL-6 production at concentration of 10^−9 ([3]; 10^−9 mol/L) | IC50 [3] [µM] | effect on LPS-induced IL-8 production at concentration of 10^−9 ([4]; 10^−9 mol/L) | IC50 [4] [µM] | IC50 ([1]; human whole blood culture) [µM] | IC50 [2] [µM] | inhibition at 10 µM ([1]; compound 10^−5 mol/L, human whole blood culture, read-out: inhibition of LPS-induced TNF-α production compared to LPS alone) [%]
COC1=CC2[C@@H]3Cc4ccc(OC)c(O)c4[C@]2(CCN3C)CC1=O (stereo partly drawn) [Compound 1, sinomenine] | no effect | no effect | no effect | 1700 | no effect | 74 |  |  | 
COC1=C[C@@H]2[C@@H]3Cc4ccc(OC)c(O)c4[C@]2(CCN3C(=O)c2ccc(C)cc2)CC1=O [Compound 39] |  |  |  | 5.3 |  |  | 13 | 4900 | 
COC(=O)c1cccc(C)c1S(=O)(=O)N1CC[C@@]23CC(=O)C(OC)=C[C@@H]2[C@@H]1Cc1ccc(OC)c(O)c13 [Compound 33] |  |  |  | 8.7 |  | 7300 | 4.4 | 100 | 
COc1ccc2c(c1OC)C13CCN(C)C(C2)C1CC=NN(S(=O)(=O)c1ccc(C)cc1)C(O)C3 (stereo not drawn) [Compound 48] |  |  |  | 1000 |  | 3800 | 760 | 9500 | 
COC1=CC2[C@@H]3Cc4ccc(OC)c(O)c4[C@]2(CCN3C(=O)c2cc(C)cc(C)c2)CC1=O (stereo partly drawn) [Compound 9] |  |  |  |  |  |  |  |  | < 30
COC1=C[C@@H]2[C@@H]3Cc4ccc(OC)c(O)c4[C@]2(CCN3C(=O)c2cccnc2)CC1=O [Compound 37] |  |  |  |  |  | 7600 | 420 | 8.8 | 
